According to patent US6262083A, “Genipin derivative having liver protection activity” (priority 1997, dated 2001):
Read-outs that look alike come from different tables or passages of the source.

Assays:
ICR mouse = assay: acute toxicity in ICR mouse; type: in vivo
Procedure: (§1) On the other hand, the acute toxicity of compounds of formulas (I)a, (I)b, (I)c and (I)d is measured using mouse according to the standard of drug toxicity test. The mouse is selected from the 4 weeks old ICR mouse and each dosage of 250 mg/kg, 500 mg/kg, 1,000 mg/kg and 2,000 mg/kg compounds of formulas (I)a, (I)b, (I)c and (I)d are administered after suspending the compounds in the corn oil.

[1] = acute toxicity in ICR mouse; type: in vivo; settings: mouse, in vivo, read-out: Lethal ratio (%)
Procedure: as §1

[2] = cytotoxicity test, neutral red dye uptake method; type: cell-based; settings: human, 2.2.15 cells, 2.2.15 cell culture, A510, read-out: IC50 (cytotoxicity)
Procedure: Cytotoxivity test was carried out in order to determine whether the antiviral effect of the compound according to the present invention is due to the general influence on cell growth or not. In the present experiment, neutral red dye uptake method was used. This is a standard method widely utilized for examining cell survival, by which the variety of relations between viruses such as HSV or HIV and host organism can be understood.
Cytotoxicity test was performed on a 96-well tissue culture plate. Cells were cultured and treated with test compounds in the same manner as Biological Example 1, and the experiments at 4-kind concentrations were repeated threetimes, respectively. Since the relative toxicity can be determined form the uptake level of neutral red dye, quantitative analysis was carried out using the absorbance of internalized dye at 510 nm (A510).

liver cells = assay: liver protection effect in carbon tetrachloride / D-galactosamine model, serum ALT (GPT) or AST in rats, oral for 4 days; type: in vivo; settings: 100 mg/kg, p.o
Procedure: The efficacy of compounds of formulas (I)a, (I)b, (I)c and (I)d was measured according to the method of carbon tetrachloride model [referred to: Philippe letteron et al., Biochemical Pharmacology, 39, 12, 2027~2034, 1990] and D-galactosamine model [referred to: Koji Hase et al., Biol. Pharm. Bull., 20, 4, 381~385, 1997].
Carbon tetrachloride and D-galactosamine are known as the compounds inducing the severe damage to liver cells, because carbon tetrachloride suppresses the biosysthesis of protein in the liver and induces the necrosis of liver cells, and D-galactosamine also induces the necrosis of liver cells by changing the structure of liver cell membranes.
In the present invention, the compounds of formulas (I)a, (I)b, (I)c and (I)d were orally administered to the rats as experimental animals for 4 days, and then the liver protection effect was examined by measuring the serum ALT or AST values in the experimental animals (referred to: Biol. Prarm. Bull., 20, 4, 38 1~385, 1997; Toxicology and Applied Pharmacology, 95, 1~11, 1988).
Following is calculation formula to evaluate liver protection properties of compounds of formulas (I)a, (I)b, (I)c and (I)d; [formula]
the control group means the group to which carbon tetrachloride or D-galactosamine is administered and the liver cells are impaired;
the normal group means the group to which normal solution is administered.
The liver protection effects of compounds of formulas (I)a, (I)b, (I)c and (I)d are shown to following Table 1 in comparison with known liver protection compound silimarin.

HBV [3] = assay: inhibitory effect on HBV replication in 2.2.15 cell culture; type: cell-based; settings: for EC50: Hepatitis B virus, 216 h, read-out: ED50 (inhibitory effect on HBV replication); for SI (selectivity Index, IC50/ED50): cytotoxicity IC50 / anti-HBV ED50, 2.2.15 cell
Procedure: Test for identifying the anti HBV effect of the compound of the present invention was carried out according to a known assay method (see, Korba and Milman, Antiviral Res., 15, 217, 1991). The assay procedure is briefly described in the following.
2.2.15. cell was cultured and preserved in RPM 11640 culture medium containing 5% fetal bovine serum (FBS), 2 mM glutamine and 50 μg/ml gentamicin sulfate. Resistance to G418 of the cell culture and degree of Mycoplasma contamination were examined according to conventional methods.
Cells (1×10^4 /cm^2) were inoculated into a multi-well tissue culture plate, confluently cultured for 7 days, and then kept for 2 or 3 days in confluent condition to stabilize the HBV DNA level. Then, culture medium was replaced 24 hours before cells were exposed to test compound. During the treatment of 9 days, culture medium was replaced and then test compound was added to the fresh culture medium at intervals of 24 hours. Culture medium was collected immediately before the first introduction of test compound, and after 3, 6, 9 days, respectively, and stored at -70° C. before HBV DNA analysis. Then, cytolysis was carried out to analyze the intracellular HBV DNA.
To analyze the extracellular HBV DNA, 0.2 ml of culture medium was incubated in 1M NaOH/10×SSC (1×SSC=0.15M NaCl/0.015M sodium citrate, pH 7.2) for 20 minutes at 25° C. and then immediately applied to a nitrocellulose membrane presoaked in 20×SSC using a slot blot apparatus. The sample was washed twice with 0.5 ml of 1M Tris/2M NaCl (pH 7.2) and once with 0.5 ml of 20×SSC to neutralize, and then it was washed again with 2×SSC and heated at […] for one hour under vacuum. Generally, the cells which have been cultured and preserved in a dish having a diameter of 10 cm are dissolved in 6 ml of lysis buffer, and the […] DNA is prepared according to the method of Korba et al., 1991.
10 μg/lane of cellular DNA sample was digested with restriction enzyme Hind III. Then, the digested sample was applied to 1% agarose gel electrophoresis and transferred to a nitrocellulose membrane.
3.2 kb HBV DNA fragment obtained by EcoR I-digestion and purification was labeled with [^32 P]dCTP using nick translation method. This labeled fragment was used as a hybridization probe. Condition for hybridization and post-washing were controlled by referring to the method of Korba et al., 1991 and HBV nucleic acid content among test sample was determined by Ambis beta scanner. The relative radioactivity of ^32 P hybridized to the test sample was compared with that of ^32 P hybridized to the standard amount of HBV DNA which was applied to each nitrocellulose membrane filter (gel or slot blot). From the calibration curve, the amount of HBV DNA corresponding to the relative cpm value was calculated.
Since the content of intracellular and extracellular HBV DNA has some inherent variations, only inhibition greater than 3.5-fold in the case of HBV virion DNA or 3.0-fold in the case of HBV DNA replication intermediates form the average level of HBV DNA formed in the untreated cell were considered to be statistically significant (P<0.05) in the present experiment. The lever of HBV DNA integrated during each cellular DNA preparation (which remains constant per cell in the present experiment) was used to calculate the level of intracellular HBV DNA formed, thereby the technical variations inherent in the blot hybridization analysis can be eliminated. Typical values for extracellular HBV virion DNA in the untreated cells ranged from 50 to 150 pg/ml culture medium with an average value of about 75 pg/ml. Intracellular HBV DNA replication intermediates (RI) in the untreated cells ranged form 50 to 100 pg/μg cellular DNA with an average value of about 74 pg/μg. […]

HBV [4] = settings: Korean Patent Laid-open No. 94-1886; cited from earlier work
[5] = cited from earlier work; for in vivo activities: in words
[6] = 2.2.15 cell culture, 9 days treatment

SMILES	Number of dead animals/Number of administered animals (ICR mouse; 250 mg/kg)	Number of dead animals/Number of administered animals (ICR mouse; 500 mg/kg)	Number of dead animals/Number of administered animals (ICR mouse; 1000 mg/kg)	Number of dead animals/Number of administered animals (ICR mouse; 2000 mg/kg)	mortality ([1]; 250 mg/kg) [%]	mortality ([1]; 500 mg/kg) [%]	mortality ([1]; 1000 mg/kg) [%]	mortality ([1]; 2000 mg/kg) [%]	CC50 at 216 h [2] [µM]	Liver protection effect (GPT, %) (liver cells) [%]	EC50 (HBV [3]; [6]) [µM]	SI (selectivity Index, IC50/ED50) (HBV [3])	HBV replication (HBV [4])	anti-tumor effect ([5]; Japanese Patent Laid-open No. 80/164625)	in vivo activities [5]	EC50 (HBV [3]) [µM]
COC(=O)C1=CO[C@@H](OCc2ccccc2)[C@@H]2C(/C=N/OC(C)(C)C)=CC[C@H]12 [Compound (I)c, methyl (1S,5R,6S)-5-benzyloxy-7-(t-buthoxyiminomethyl)-4-oxa-bicyclo [4.3.0]nona-2,7-dien-2-carboxylate]	0/5	0/5	0/5	0/5	0	0	0	0	180	64	30	5.7				
COC(=O)C1=CO[C@@H](O)[C@@H]2C(CO)=CC[C@H]12 [genipin]													inhibit the HBV replication	effective as an anti-tumor agent	liver-protection, inhibition of biosynthesis of RNA and protein, detoxification as well as antiviral activity	
COC(=O)C1=CO[C@@H](OCc2ccccc2)[C@@H]2C(CN=[N+]=[N-])=CC[C@H]12 [Compound (I)a, methyl (7R,3aS,7aS)-1-azidomethyl-7-benzyloxy-3,7,3a,7a-tetrahydro-6-oxaindene-4-carboxylate]	0/5		0/5	0/5	0	0	0	0	120	65	80	4.5				
COC(=O)C1=CO[C@H](OCc2ccccc2)[C@H]2[C@@H]1CC1OC(C)(C)OC12CNC(=O)Nc1cccnc1 (stereo partly drawn) [Compound (I)d, methyl (1S,8S,12S)-2-[(3-pyridyl)ureido]methyl-4,4-dimethyl-3,5,11-trioxa-12-benzyloxy-tricyclo[6.4.0.0<2,6>]dodec-9-en-9-carboxylate]	0/5	0/5	0/5	0/5	0	0	0	0	70	74	20	2.5				
OCC1=C[C@@H](O)[C@@H]2C=CO[C@@H](O[C@@H]3O[C@H](CO)[C@@H](O)[C@H](O)[C@H]3O)[C@H]12 [aucubin]													inhibit the HBV replication		liver-protection, inhibition of biosynthesis of RNA and protein, detoxification as well as antiviral activity	
COC(=O)C1=CO[C@@H]2O[C@H](OC)[C@@H]3CC[C@H]1[C@H]23 [Compound (I)b, (2S,2aR,4aS,7aR,7bS)-2-methoxy-5-methoxycarbonyl-2a,3,4,4a,7a,7b-hexa-hydro-2H-1,7-dioxacyclopent[c.d]indene]	0/5	0/5	0/5	0/5	0	0	0	0	90	57	40	3.0				
Nc1ccn([C@H]2CC[C@@H](CO)O2)c(=O)n1 [ddC, dideoxy cytidine, reference compound]									> 30			> 2.0				15
